In ChEMBL document CHEMBL1143233, “Synthesis, characterization and evaluation of benzimidazole derivative and its precursors as inhibitors of MDA-MB-231 human breast cancer cell proliferation” (2008):

Test system: MDA-MB-231
Test: Antiproliferative activity against human MDA-MB-231 cells at 2 mM after 72 hrs by MTS/PMS assay
Settings: MDA-MB-231, 72 h

Row | SMILES | inhibition at 2000 µM [%]
1 | N#Cc1ccc(NC(=O)c2ccc(NCc3ccc(F)cc3)c(NC(=O)c3ccc(Cl)cc3Cl)c2)cc1C(F)(F)F | 0
2 | N#Cc1ccc(NC(=O)c2ccc(F)c([N+](=O)[O-])c2)cc1C(F)(F)F | 60
3 | N#Cc1ccc(NC(=O)c2ccc(NCc3ccc(F)cc3)c(N)c2)cc1C(F)(F)F | 9.8
4 | N#Cc1ccc(NC(=O)c2ccc(NCc3ccc(F)cc3)c([N+](=O)[O-])c2)cc1C(F)(F)F | 0
5 | N#Cc1ccc(NC(=O)c2ccc3c(c2)nc(-c2ccc(Cl)cc2Cl)n3Cc2ccc(F)cc2)cc1C(F)(F)F | 26.1
